Experimental findings from article PMC8038350, “Nordihydroguaiaretic Acid as a Novel Substrate and Inhibitor of Catechol O-Methyltransferase Modulates 4-Hydroxyestradiol-Induced Cyto- and Genotoxicity in MCF-7 Cells” (Molecules, 2021) are described below.

In assay [1] the target is T1, catechol O-methyl transferase (COMT) (Homo sapiens, UniProt P21964).
T1 construct: endogenous COMT in MCF-7 whole cell lysate
T1 sequence (P21964 1-271): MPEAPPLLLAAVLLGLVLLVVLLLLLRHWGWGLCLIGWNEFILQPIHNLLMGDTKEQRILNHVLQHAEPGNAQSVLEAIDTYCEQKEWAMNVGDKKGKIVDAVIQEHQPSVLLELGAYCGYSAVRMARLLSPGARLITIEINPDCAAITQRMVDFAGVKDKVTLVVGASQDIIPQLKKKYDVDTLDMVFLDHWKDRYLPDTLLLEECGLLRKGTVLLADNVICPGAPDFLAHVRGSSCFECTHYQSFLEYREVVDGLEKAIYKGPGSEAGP
The experiment in a line: 4-MeOE2 formation in MCF-7 cells/lysate; […] decrease at […]. The note with it: MCF7. The format is cell-based.

In assay [2] the target is T2, catechol O-methyl transferase (COMT) (Homo sapiens, UniProt P21964).
T2 construct: recombinant human soluble COMT, hexahistidine-tagged
T2 sequence (P21964 51-271 limits assumed): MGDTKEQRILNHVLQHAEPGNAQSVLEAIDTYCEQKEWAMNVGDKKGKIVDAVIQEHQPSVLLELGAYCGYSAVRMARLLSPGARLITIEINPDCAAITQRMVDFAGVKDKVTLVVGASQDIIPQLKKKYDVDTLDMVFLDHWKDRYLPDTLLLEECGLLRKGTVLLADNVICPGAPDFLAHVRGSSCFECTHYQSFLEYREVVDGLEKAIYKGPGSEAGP
The experiment in a line: inhibition of recombinant COMT O-methylation of 4-OHE2 by HPLC-DAD (IC50 […]); also a substrate (Km […]). The format is biochemical.

One may read the inhibition as the share of the control response that was lost under treatment. Higher therefore signals strong suppression. In turn, `O=C(c1cc(O)c(O)c([N+](=O)[O-])c1)c1ccccc1F` [Ro 41-0960] came in with an inhibition at 10 µM in assay [1] of 88%. What is called Ki is the equilibrium dissociation constant of an inhibitor or competing ligand from its target. As for `C[C@H](Cc1ccc(O)c(O)c1)[C@H](C)Cc1ccc(O)c(O)c1` [compound 1, 4-[4-(3,4-dihydroxyphenyl)-2,3-dimethylbutyl] benzene-1,2-diol], the Ki in assay [2] amounted to 15.7 µM.
